Experimental data taken from article PMC10999543, “Identification of kinase modulators as host-directed therapeutics against intracellular methicillin-resistant Staphylococcus aureus” (Frontiers in Cellular and Infection Microbiology, 2024).
Read-outs that look alike come from different tables or passages of the source.

Assays:
intracellular MRSA = format: cell-based, Staphylococcus aureus; settings: for z-scoreMRSA+ mean: mean of 3 replicates; for z-scoreMRSA+ rep 1 / %GFP+ rep 1: replicate 1; for z-scoreMRSA+ rep 2 / %GFP+ rep 2: replicate 2; for z-scoreMRSA+ rep 3 / %GFP+ rep 3: replicate 3
Procedure, shortened: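 Values are z-scores: GFP-positive HeLa percentage and event count per well against plate statistics, minus the mean DMSO z-score. Wells deviating two-fold from controls were left out of plate means. Infection was at a mean MOI of 6.8, with an overnight compound exposure.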

HER2 = system: HER2; set-up: method as in Elkins et al., 2016; settings: PKIS1, Caliper assay, ref Elkins et al., 2016; cited from earlier work
HeLa cells = assay: Compound screen by flow cytometry: HeLa cell count as surrogate readout of cell viability (z-scoreHeLa); format: cell-based, human
Procedure, shortened: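 The viability surrogate was the count of fixed HeLa cells by flow cytometry, converted to z-scores against DMSO controls with values deviating two-fold excluded. Before counting, cells had been infected with MRSA for 1 h and cleared of extracellular bacteria with gentamicin. They were then exposed overnight to kinase inhibitors in triplicate.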

HER4 = system: HER4; set-up: method as in Elkins et al., 2016; settings: PKIS1, Caliper assay, ref Elkins et al., 2016; cited from earlier work
[1] = system: intracellular MRSA in HeLa cells; assay: Gentamicin protection assay with CFU count in MRSA-infected HeLa cells; format: cell-based, Staphylococcus aureus; settings: tested at different concentrations, Figure 4K
Protocol: The cells were resuspended in cell culture medium without antibiotics, seeded with 10,000 cells/well into Costar flat-bottom 96-well plates (Corning, Amsterdam, the Netherlands), and were incubated overnight at 37°C/5% CO2. The next day, the bacteria were centrifuged at ≥1800 g for 15 min and resuspended in cold PBS + 5 mM ethylenediaminetetraacetic acid (EDTA). The number of CFUs present in the bacterial suspension was estimated from the optical density at 600 nm (OD600) by assuming 8x10^8 CFUs to be present in a bacterial suspension with OD600 = 1, based on prior titrations. The bacterial suspension was diluted in cell culture medium without antibiotics and added to the cells. Accuracy of the multiplicity of infection (MOI) was validated by plating serial dilutions of the MRSA inoculums on Difco TS agar plates (BD Biosciences). The calculated mean MOI throughout all experiments was 6.8 ± 4.6 (mean ± SD). Infected cells were centrifuged for 3 min at 150 g and incubated for 1 hour at 37°C/5% CO2. Next, the cells were incubated with fresh cell culture medium supplemented with 30 µg/ml gentamicin sulphate (Lonza BioWhittaker, Basel, Switzerland) for 15 min at 37°C/5% CO2 to kill residual extracellular bacteria. Infected cells were incubated overnight at 37°C/5% CO2 in cell culture medium in the presence of kinase inhibitors and 5 µg/ml gentamicin sulphate-containing medium to prevent the growth of extracellular bacteria. The solvent of the compounds, DMSO, was used at equal % v/v as a negative control. For the screen, each compound was tested in triplicate, on separate cell culture plates, resulting in triplicate values for each kinase inhibitor.
Infected cells were lysed in sterile water + 0.05% UltraPure SDS solution (Invitrogen, ThermoFisher Scientific) to release intracellular bacteria. Bacterial suspensions and lysates of cells infected with MRSA were 5-fold serially diluted and 10-μl drops were plated on square TS agar plates. The plates were left to dry and incubated overnight at 37°C/5% CO2.

[2] = PKIS compound screen, Yes/No call
[3] = PKIS compound screen, Yes/No call (effect without cell death)
[4] = PKIS compounds raw data, MRSA-infected HeLa cells
[5] = PKIS compound screen, mean of 3 replicates
[6] = PKIS compound screen, replicate 1
[7] = PKIS compound screen, replicate 2
[8] = PKIS compound screen, replicate 3
[9] = PKIS compounds raw data, replicate 1, HeLa cell count
[10] = PKIS compounds raw data, replicate 2, HeLa cell count
[11] = PKIS compounds raw data, replicate 3, HeLa cell count
[12] = PKIS compound screen raw data, MRSA-infected HeLa cells
[13] = PKIS compound screen, MRSA-infected HeLa cells
[14] = PKIS compound screen, Yes/No call on z-scoreMRSA+
[15] = PKIS compound screen raw data, HeLa cell count, replicate 1
[16] = PKIS compound screen raw data, HeLa cell count, replicate 2
[17] = PKIS compound screen raw data, HeLa cell count, replicate 3
[18] = Yes/No: effect without cell death
[19] = compound screen, MRSA-infected HeLa cells
[20] = compound screen, HeLa cell count, mean of 3 replicates
[21] = compound screen, HeLa cell count, replicate 1
[22] = compound screen, HeLa cell count, replicate 2
[23] = compound screen, HeLa cell count, replicate 3

| Molecule | effect (intracellular MRSA; [2]) | hit (intracellular MRSA; [3]) | z-scoreMRSA+ mean (intracellular MRSA; PKIS compound screen) | z-scoreMRSA+ rep 1 (intracellular MRSA; PKIS compound screen) | z-scoreMRSA+ rep 2 (intracellular MRSA; PKIS compound screen) | z-scoreMRSA+ rep 3 (intracellular MRSA; PKIS compound screen) | %GFP+ rep 1 (intracellular MRSA; [4]) [%] | %GFP+ rep 2 (intracellular MRSA; [4]) [%] | %GFP+ rep 3 (intracellular MRSA; [4]) [%] | cell count rep 1 (HeLa cells; [9]) | cell count rep 2 (HeLa cells; [10]) | cell count rep 3 (HeLa cells; [11]) | %GFP+ rep 1 (intracellular MRSA; [12]) [%] | %GFP+ rep 2 (intracellular MRSA; [12]) [%] | %GFP+ rep 3 (intracellular MRSA; [12]) [%] | effect (intracellular MRSA; Yes/No call from z-scoreMRSA+) | hit (intracellular MRSA; [18]) | z-scoreMRSA+ mean (intracellular MRSA; [19]) | z-scoreMRSA+ rep 1 (intracellular MRSA; [19]) | z-scoreMRSA+ rep 2 (intracellular MRSA; [19]) | further results |
| --- | --- | --- | --- | --- | --- | --- | --- | --- | --- | --- | --- | --- | --- | --- | --- | --- | --- | --- | --- | --- | --- |
| [O-][S+]1CCN(Cc2ccc(-c3ccc4ncnc(Nc5ccc(OCc6ccccc6)c(Cl)c5)c4c3)o2)CC1 [GW583373A] | No | No | -1.31 | -1.43 | -1.26 | -1.26 | 19.7 | 19.5 | 20.5 | 8794 | 7971 | 7863 | – | – | – | – | – | – | – | – | % inhibition at 1 µM HER2 (HER2): 73%; cell death (HeLa cells; [2]): No; z-scoreHeLa mean (HeLa cells; [5]): 1.46; z-scoreHeLa rep 1 (HeLa cells; [6]): 1.65; z-scoreHeLa rep 2 (HeLa cells; [7]): 1.30; z-scoreHeLa rep 3 (HeLa cells; [8]): 1.44; % inhibition at 1 µM HER4 (HER4): 84% |
| O=C(Nc1n[nH]c2nc(-c3ccccc3)c(Br)cc12)C1CC1 [SB-708998] | No | No | 0.31 | 0.75 | -0.18 | 0.38 | 30.9 | 25.1 | 29.3 | 5956 | 6708 | 6327 | 14.4 | 13.9 | 15.7 | – | – | – | – | – | z-scoreMRSA+ mean (intracellular MRSA; [13]): -1.40; z-scoreMRSA+ rep 1 (intracellular MRSA; [13]): -1.17; z-scoreMRSA+ rep 2 (intracellular MRSA; [13]): -1.50; z-scoreMRSA+ rep 3 (intracellular MRSA; [13]): -1.51; effect (intracellular MRSA; [14]): No; cell count rep 1 (HeLa cells; [15]): 29154; cell count rep 2 (HeLa cells; [16]): 28936; cell count rep 3 (HeLa cells; [17]): 20350; z-scoreHeLa mean (HeLa cells; PKIS compound screen, HeLa cell count, mean of 3 replicates): 0.24; z-scoreHeLa rep 1 (HeLa cells; PKIS compound screen, HeLa cell count, replicate 1): -0.18; z-scoreHeLa rep 2 (HeLa cells; PKIS compound screen, HeLa cell count, replicate 2): 0.63; z-scoreHeLa rep 3 (HeLa cells; PKIS compound screen, HeLa cell count, replicate 3): 0.28; cell death (HeLa cells; [2]): No; cell death (HeLa cells; PKIS compound screen, Yes/No call on z-scoreHeLa): No; z-scoreHeLa mean (HeLa cells; [5]): 0.29; z-scoreHeLa rep 1 (HeLa cells; [6]): -0.0543; z-scoreHeLa rep 2 (HeLa cells; [7]): 0.46; z-scoreHeLa rep 3 (HeLa cells; [8]): 0.46 |
| O=C(Nc1n[nH]c2cc(-c3cccs3)ccc12)C1CC1 [SB-731284] | – | – | – | – | – | – | – | – | – | – | – | – | 22.6 | 23.6 | 20.0 | No | No | -0.35 | -0.62 | 0.24 | z-scoreMRSA+ rep 3 (intracellular MRSA; [19]): -0.66; cell count rep 1 (HeLa cells; [15]): 2848; cell count rep 2 (HeLa cells; [16]): 2463; cell count rep 3 (HeLa cells; [17]): 2761; cell death (HeLa cells; Yes/No call from z-scoreHeLa): No; z-scoreHeLa mean (HeLa cells; [20]): -1.36; z-scoreHeLa rep 1 (HeLa cells; [21]): -1.08; z-scoreHeLa rep 2 (HeLa cells; [22]): -1.41; z-scoreHeLa rep 3 (HeLa cells; [23]): -1.57 |
| O=C(Nc1n[nH]c2cc(-c3ccsc3)ccc12)C1CC1 [SB-732932] | – | – | – | – | – | – | 25.2 | 22.2 | 22.6 | 6278 | 6296 | 8200 | – | – | – | No | No | 0.001 | -0.0173 | -0.10 | z-scoreMRSA+ rep 3 (intracellular MRSA; [19]): 0.12; cell death (HeLa cells; Yes/No call from z-scoreHeLa): No; z-scoreHeLa mean (HeLa cells; [20]): 1.60; z-scoreHeLa rep 1 (HeLa cells; [21]): 1.39; z-scoreHeLa rep 2 (HeLa cells; [22]): 1.54; z-scoreHeLa rep 3 (HeLa cells; [23]): 1.87 |
| O=C(Nc1n[nH]c2cc(-c3ccccc3)ccc12)C1CC1 [SB-732941] | No | No | -0.19 | -0.15 | 0.30 | -0.74 | 12.7 | 14.4 | 13.4 | 4945 | 4760 | 7601 | – | – | – | – | – | – | – | – | cell death (HeLa cells; [2]): No; z-scoreHeLa mean (HeLa cells; [5]): 0.28; z-scoreHeLa rep 1 (HeLa cells; [6]): 0.15; z-scoreHeLa rep 2 (HeLa cells; [7]): 0.37; z-scoreHeLa rep 3 (HeLa cells; [8]): 0.31 |
| O=C(Nc1n[nH]c2cc(-c3cccc(F)c3F)ccc12)C1CC1 [SB-733894] | – | – | – | – | – | – | – | – | – | – | – | – | 21.8 | 21.7 | 19.3 | No | No | -0.63 | -0.81 | -0.22 | z-scoreMRSA+ rep 3 (intracellular MRSA; [19]): -0.87; cell count rep 1 (HeLa cells; [15]): 4632; cell count rep 2 (HeLa cells; [16]): 4442; cell count rep 3 (HeLa cells; [17]): 4898; cell death (HeLa cells; Yes/No call from z-scoreHeLa): No; z-scoreHeLa mean (HeLa cells; [20]): 0.0318; z-scoreHeLa rep 1 (HeLa cells; [21]): 0.20; z-scoreHeLa rep 2 (HeLa cells; [22]): 0.11; z-scoreHeLa rep 3 (HeLa cells; [23]): -0.22 |
| Nc1nonc1-c1nc2cnccc2n1C1CCCCC1 [SB-734117] | – | – | – | – | – | – | 14.7 | 14.0 | 13.2 | 2677 | 2902 | 5031 | – | – | – | No | No | -0.0455 | 0.49 | 0.17 | z-scoreMRSA+ rep 3 (intracellular MRSA; [19]): -0.79; cell death (HeLa cells; Yes/No call from z-scoreHeLa): No; z-scoreHeLa mean (HeLa cells; [20]): -1.28; z-scoreHeLa rep 1 (HeLa cells; [21]): -1.90; z-scoreHeLa rep 2 (HeLa cells; [22]): -1.03; z-scoreHeLa rep 3 (HeLa cells; [23]): -0.92 |
| CNC(=O)CN1CCC(Oc2cc3c(Nc4cccc(Cl)c4F)ncnc3cc2OC)CC1 [sapitinib, reference compound] | – | – | – | – | – | – | – | – | – | – | – | – | – | – | – | – | – | – | – | – | effect on bacterial burden of MRSA-infected HeLa cells [1]: unable to reduce the bacterial burden |
| SB-675259-M | No | No | -0.33 | -0.0227 | 0.37 | -1.33 | 13.1 | 14.6 | 11.4 | – | – | – | – | – | – | – | – | – | – | – | cell count rep 1 (HeLa cells): 2153; cell count rep 2 (HeLa cells): 1700; cell count rep 3 (HeLa cells): 5596; cell death (HeLa cells): No; z-scoreHeLa mean (HeLa cells): -1.66; z-scoreHeLa rep 1 (HeLa cells): -2.37; z-scoreHeLa rep 2 (HeLa cells): -1.94; z-scoreHeLa rep 3 (HeLa cells): -0.65 |
| SB-739245-AC | – | No | – | – | – | – | – | – | – | – | – | – | 12.9 | 15.6 | 16.3 | – | – | – | – | – | z-scoreMRSA+ mean (intracellular MRSA; [13]): -1.17; z-scoreMRSA+ rep 1 (intracellular MRSA; [13]): -1.57; z-scoreMRSA+ rep 2 (intracellular MRSA; [13]): -0.88; z-scoreMRSA+ rep 3 (intracellular MRSA; [13]): -1.06; effect (intracellular MRSA; [14]): No; cell count rep 1 (HeLa cells): 23497; cell count rep 2 (HeLa cells): 32010; cell count rep 3 (HeLa cells): 40050; cell death (HeLa cells): No; z-scoreHeLa mean (HeLa cells): -0.0274; z-scoreHeLa rep 1 (HeLa cells): 0.51; z-scoreHeLa rep 2 (HeLa cells): -0.52; z-scoreHeLa rep 3 (HeLa cells): -0.0761 |
